Results on four compounds are retold here after patent publication US4469691A, “Hexamethylenetetramine-N-acetyl-thiazolidine-4-carboxylate, a process for its preparation and a pharmaceutical composition containing it” (Ausonia Farmaceutici s.r.l., priority 1982, dated 1984).

Where two headings read alike, the source gives them in different places. Bounds are passed on as bounds.

One data set concerns Wistar rats. As to the kind of experiment: Acute oral toxicity in Wistar rats (Litchfield and Wilcoxon). To be noted: rat. It is filed as in vivo.
A further data set has as its system Serratia spp. Kind of data set: In vitro antibacterial activity, M.I.C., Serratia spp. It is filed as cell-based. To be noted: of 5 strains, pH 5.5. The method, then:
Serratia spp (5 strains)
(§1) As culture medium, Mueller Hinton Agar at pH 5.5 was used. The compounds under examination were dissolved in and diluted by sterile saline; 1 ml of the diluted solutions thus obtained was poured in Petri's dishes and 19 ml of Mueller Hinton Agar were subsequently added thereto.
(§2) The inoculation of bacteria was performed using a multi point inoculator and a 18 hour growth broth culture of each of the strains under examination. With this method the bacterial inoculum is equal to about 10^5 colony-forming units (CFU) per point. Reading of the results was performed after cultivating the plates for 18 hours at 37° C.

A further data set relates to Swiss mice. As to the kind of experiment: Acute oral toxicity in Swiss mice (Litchfield and Wilcoxon). It is filed as in vivo. To be noted: mouse.
A further data set has as its system Proteus spp. Kind of data set: In vitro antibacterial activity, M.I.C., Proteus spp. It is filed as cell-based. Conditions: of 10 strains, pH 5.5. The protocol:
Proteus spp (10 strains)
as §1, §2

Another data set relates to strain of Ps. aeruginosa. More on the design: species or system Sprague Dawley rats; Ps. aeruginosa. Conditions: rat, in vivo, ip. The protocol: Each group of animals received the substances i.p. in […] of sterile saline; the animals were placed in metabolic cages with free access to water. Urine samples were collected at the following intervals:
1 ml of nutrient broth at pH 5.5, containing approximately […] colony-forming units of a strain of Ps. aeruginosa sensitive to the action of both substances, was added to 1 ml of the urine or the standard solution of the two drugs dissolved in distilled water.
Standard and urine samples were sequentially diluted twofold by means of the same broth containing the microorganisms until a 1:2048 dilution was achieved.
After overnight incubation at 37° C. the maximum dilution (limit dilution) of the substances or samples inhibiting bacterial growth was determined.
Therefore the concentration of the substances in the urine samples was determined using the formula below: [formula]

In another data set the test system is Salmonella spp. As to the kind of experiment: In vitro antibacterial activity, M.I.C., Salmonella spp. It is filed as cell-based. Conditions: of 10 strains, pH 5.5. The method, then:
Salmonella spp (10 strains)
as §1, §2

In another data set the test system is liver affections. Kind of data set: Protective activity against liver affections.
For data set [1] the following is noted: in vivo, po.
Data set [2] has as its system 90 strains of different Gram-positive and Gram-negative bacterial species. Kind of data set: In vitro antibacterial activity, all 90 strains. Conditions: for Antibacterial activity (in words): all microorganisms, AFP 829 versus EMTA. It is filed as cell-based, Gram-positive and Gram-negative bacteria. The protocol: as §1, §2
The subject of another data set is Staphylococcus aureus. Kind of data set: In vitro antibacterial activity, M.I.C., Staphylococcus aureus. Type of data set: cell-based. To be noted: of 15 strains, pH 5.5. The method, then: as §1, §2
A further data set has as its system Citrobacter spp. Kind of data set: In vitro antibacterial activity, M.I.C., Citrobacter spp. It is filed as cell-based. Conditions: of 3 strains, pH 5.5. The method, then:
Citrobacter spp (3 strains).
as §1, §2

A further data set deals with Klebsiella spp. As to the kind of experiment: In vitro antibacterial activity, M.I.C., Klebsiella spp. Type of data set: cell-based. Conditions: of 7 strains, pH 5.5. The method, then: Klebsiella spp (7 strains)
as §1, §2

The test system of the next data set is Pseudomonas aeruginosa. Kind of data set: In vitro antibacterial activity, M.I.C., Pseudomonas aeruginosa. It is filed as cell-based. To be noted: 62.5 mcg/ml (EMTA; AFP 829 equimolar); of 10 strains; pH 5.5. The protocol: as §1, §2
The next data set has as its system Enterococcus. Kind of data set: In vitro antibacterial activity, M.I.C., Enterococcus (Streptococcus faecalis). It is filed as cell-based. To be noted: of 5 strains, pH 5.5. The protocol:
as §1, §2

In the next data set the test system is E. coli. Kind of data set: In vitro antibacterial activity, M.I.C., E. coli. Conditions: of 10 strains, pH 5.5. Type of data set: cell-based. The method, then: as §1, §2
The subject of the next data set is Streptococcus. As to the kind of experiment: In vitro antibacterial activity, M.I.C., Streptococcus (pyogenes). It is filed as cell-based. To be noted: of 15 strains, pH 5.5. The method, then: as §1, §2
The next data set concerns male Wistar rats. As to the kind of experiment: Mucosecretolytic activity in male Wistar rats (method of H. Mawatari). It is filed as in vivo, rat. To be noted: for % increase of sodium fluorescein compared with controls: 250 mg/Kg p.o., 10 animals; for Mucosecretolytic activity (in words): oral, rats. The protocol: Mucosecretolytic activity was determined in male Wistar rats after AFP 829 administration given via the oral route. The method described by H. Mawatari was used for the determination [H. Mawatari, Kagoshima Daiagaku, Igaku Zasshi 27, 561 (1976)]. A drug of known activity--carboxymethylcysteine--was used as the reference standard.

Data set [3] is described as follows: Acute oral toxicity in Wistar rats (Litchfield and Wilcoxon). It is filed as in vivo. Conditions: in vivo, rat.
The nature of data set [4]: Acute oral toxicity in Swiss mice (Litchfield and Wilcoxon). It is filed as in vivo. Conditions: in vivo, mouse.
Data set [5] in a line: Pharmacokinetics in laboratory animals after oral administration.
The conditions of data set [6]: in vivo; cited from earlier work.
Setting [7] is: 62.5 mcg/ml (EMTA; AFP 829 equimolar).
Where [8] appears, read: 125 mcg/ml (EMTA; AFP 829 equimolar).
The mark [9] stands for this setting: 31.2 mcg/ml (EMTA; AFP 829 equimolar).
Where [10] appears, read: listed as hexamethylenetetramine-N-acetyl-thiazolidine-4-carboxylate (I).
Setting [11] is: 15.6 mcg/ml (EMTA; AFP 829 equimolar).
The mark [12] stands for this setting: 250 mcg/ml (EMTA; AFP 829 equimolar).

For the compound `C1N2CN3CN1CN(C2)C3.CC(=O)N1CSCC1C(=O)O` (centres unmarked) [AFP 829, hexamethylenetetramine-N-acetyl-thiazolidine-4-carboxylate], the LD50 (commonly the dose expected to kill half of the subjects tested) in the data set with Wistar rats is 2100 mg/kg; in the data set with Swiss mice it was 1350 mg/kg. For the same compound, the “M.I.C., cumulative number of strains inhibited” value with Serratia spp (setting [7]) is 4 strains; in the data set with Serratia spp (setting [8]), 5 strains; with Proteus spp (setting [9]), 3 strains; in the data set on Proteus spp (setting [7]) it was 10 strains; in the data set with Salmonella spp (setting [9]), 1 strains; in the data set on Salmonella spp (setting [7]) it was 10 strains. For the same compound, the “M.I.C., cumulative number of strains inhibited” value in the data set with Staphylococcus aureus (setting [7]) is 13 strains; in the data set with Staphylococcus aureus (setting [8]) it was 15 strains; in the data set on Citrobacter spp (setting [7]) it was 3 strains; with Klebsiella spp (setting [7]), 7 strains; in the data set on Pseudomonas aeruginosa, 10 strains; in the data set with Enterococcus (setting [9]) it was 1 strains. The “M.I.C., cumulative number of strains inhibited” value with Enterococcus (setting [7]) is recorded as 5 strains; with E. coli (setting [7]) it was 10 strains; with Streptococcus (setting [11]), 5 strains; in the data set on Streptococcus (setting [7]), 12 strains; with Streptococcus (setting [8]), 15 strains. Further, the Concentration in urine is 2000 mcg/ml of urine in the data set on strain of Ps. aeruginosa (1.5 h), 4000 mcg/ml of urine in the data set with strain of Ps. aeruginosa (2.5 h), 4000 mcg/ml of urine in the data set with strain of Ps. aeruginosa (4.5 h) and 1000 mcg/ml of urine in the data set with strain of Ps. aeruginosa (6.5 h). The “Protective activity against liver affections (in words)” value in the data set on liver affections is “protective activity against liver affections”. In addition, in [1], the “Occurrence in urine (in words)” value was “selectively occur in the urine along with the active metabolites thereof”. Moreover, the “M.I.C.: no microorganism resistant to concentrations higher than” value in [2] (all microorganisms used, pH 5.5) was at most 125 µg/mL. In addition, the “Antibacterial activity (in words)” value is “active in comparison with all of the microorganisms used” in data set [2] and “higher antibacterial activity than hexamethylenetetramine” in [2] (setting [10]). Besides, the “% increase of sodium fluorescein compared with controls” value with male Wistar rats came out at 96.1%. The “Mucosecretolytic activity (in words)” value is “powerful mucosecretolytic activity, markedly higher than the standard substance” in the data set with male Wistar rats and “remarkable mucosecretolytic properties” with male Wistar rats (setting [10]).

On to `C1N2CN3CN1CN(C2)C3` [EMTA, hexamethylenetetramine], for which the LD50 in data set [3] was 1050 mg/kg; in data set [4], 1500 mg/kg. Also, the “M.I.C., cumulative number of strains inhibited” value is reported as 4 strains in the data set with Serratia spp (setting [7]); 5 strains in the data set with Serratia spp (setting [8]); 10 strains with Proteus spp (setting [7]); 9 strains in the data set on Salmonella spp (setting [7]); 10 strains in the data set with Salmonella spp (setting [8]); 10 strains in the data set on Staphylococcus aureus (setting [7]). Further, the “M.I.C., cumulative number of strains inhibited” value in the data set on Staphylococcus aureus (setting [8]) came to 14 strains; in the data set on Staphylococcus aureus (setting [12]), 15 strains; in the data set with Citrobacter spp (setting [7]), 1 strains; in the data set on Citrobacter spp (setting [8]), 3 strains; in the data set on Klebsiella spp (setting [7]) it was 6 strains; in the data set with Klebsiella spp (setting [8]), 7 strains. Further, the “M.I.C., cumulative number of strains inhibited” value in the data set on Pseudomonas aeruginosa was 10 strains; in the data set on Enterococcus (setting [7]), 4 strains; in the data set on Enterococcus (setting [8]), 5 strains; in the data set with E. coli (setting [7]), 8 strains; with E. coli (setting [8]) it was 10 strains; with Streptococcus (setting [11]), 7 strains. The “M.I.C., cumulative number of strains inhibited” value is given as 11 strains in the data set with Streptococcus (setting [7]), 13 strains in the data set with Streptococcus (setting [8]), 14 strains in the data set on Streptococcus (setting [12]) and 15 strains in the data set with Streptococcus (500 mcg/ml (EMTA; AFP 829 equimolar)). Besides, the “Antibacterial activity (in words)” value in [2] was “slightly less active”. For the same compound, in data set [5], the “Occurrence in urine (in words)” value is recorded as “selectively occur in the urine along with the active metabolites thereof”. The “Converted to formaldehyde in acid urine” value in [6] is on record as “about 15%”. The “Eliminated unchanged in the urine” value in data set [6] was 90%.

Regarding `O=C(O)C1CSCN1` (centres unmarked) [TCA, thiazolidine-4-carboxylic acid], the LD50 worked out at 800 mg/kg in data set [3] and 400 mg/kg in data set [4].

As to carboxymethylcysteine, the “% increase of sodium fluorescein compared with controls” value with male Wistar rats was determined as 33.4%.
